In PMC4113810, “Hainanerectamines A–C, Alkaloids from the Hainan Sponge Hyrtios erecta” (Marine Drugs, 2014):
pIC50: −log10 of the molar value.

The molecules below were run against T1, Aurora A (Homo sapiens, UniProt O14965) (assay: Z-LYTE kinase assay (peptide/kinase mixture with ATP, fluorescence)).
T1 construct: gene AURKA
T1 sequence (O14965 1-403): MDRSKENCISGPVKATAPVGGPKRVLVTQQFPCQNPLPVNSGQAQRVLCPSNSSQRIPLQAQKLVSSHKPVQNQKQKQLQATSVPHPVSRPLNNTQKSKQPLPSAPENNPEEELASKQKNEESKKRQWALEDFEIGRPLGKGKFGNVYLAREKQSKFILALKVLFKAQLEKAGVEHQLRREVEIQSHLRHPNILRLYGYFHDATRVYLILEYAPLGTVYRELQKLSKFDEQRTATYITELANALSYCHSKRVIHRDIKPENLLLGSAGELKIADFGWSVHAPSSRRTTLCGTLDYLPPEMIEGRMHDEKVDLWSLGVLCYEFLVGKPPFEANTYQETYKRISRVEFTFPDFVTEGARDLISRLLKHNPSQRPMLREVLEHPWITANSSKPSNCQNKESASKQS
Assay type: biochemical

| pIC50 | SMILES |
| --- | --- |
| 3.91 | C/C=C(/C=O)c1c[nH]c2ccc(O)cc12 [compound 2, hainanerectamine B] |
| 4.36 | O=C(O)[C@@H]1Cc2c([nH]c3ccc(O)cc23)[C@H](Cc2c[nH]cn2)N1 [compound 3, (−)-(1R^*, 3R^*)-6-hydroxy-1-(4-methylene-1H-imidazole)-2,3,4,9-tetrahydro-1H-β-carboline-3-carboxylic acid] |
| 4.30 | CSc1ncn(C)c1C[C@@H]1N[C@H](C(=O)O)Cc2c1[nH]c1ccc(O)cc21 [compound 4, hainanerectamine C] |
